Assay results: PubChem BioAssay (NCI)
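Grown in 96-well plates, cells were treated for 48 hours with each compound at five concentrations. Insufficient inhibition: endpoint recorded as highest concentration tested. TGI: total growth inhibition.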

Tests used:
Experiment in all cases: NCI tumour cell line growth inhibition, 48 h
HOP-18 NSCLC = system: HOP-18 NSCLC
SF-268 CNS = system: SF-268 CNS
OVCAR-8 ovarian = system: OVCAR-8 ovarian
UACC-257 melanoma = system: UACC-257 melanoma
HCT-15 colon = system: HCT-15 colon
A549 NSCLC = system: A549 NSCLC
DMS 114 small cell lung = system: DMS 114 small cell lung
DMS 273 small cell lung = system: DMS 273 small cell lung
HOP-92 NSCLC = system: HOP-92 NSCLC
OVCAR-3 ovarian = system: OVCAR-3 ovarian
RPMI-8226 leukemia = system: RPMI-8226 leukemia
SK-MEL-28 melanoma = system: SK-MEL-28 melanoma
NCI-H522 lung = system: NCI-H522 lung
DLD-1 colon = system: DLD-1 colon
SN12C renal = system: SN12C renal
SW-620 colon = system: SW-620 colon
MALME-3M melanoma = system: MALME-3M melanoma
SNB-19 CNS = system: SNB-19 CNS
UACC-62 melanoma = system: UACC-62 melanoma
SN12K1 renal = system: SN12K1 renal
RXF 393 renal = system: RXF 393 renal
K-562 leukemia = system: K-562 leukemia
SK-MEL-2 melanoma = system: SK-MEL-2 melanoma
LOX IMVI melanoma = system: LOX IMVI melanoma
KM12 colon = system: KM12 colon
SF-295 CNS = system: SF-295 CNS
XF 498 CNS = system: XF 498 CNS
IGROV1 ovarian = system: IGROV1 ovarian
A498 renal = system: A498 renal
NCI-H23 lung = system: NCI-H23 lung
COLO 205 colon = system: COLO 205 colon
HCC-2998 colon = system: HCC-2998 colon
P388 leukemia = system: P388 leukemia
HL-60(TB) leukemia = system: HL-60(TB) leukemia
UO-31 renal = system: UO-31 renal
SK-OV-3 ovarian = system: SK-OV-3 ovarian
EKVX NSCLC = system: EKVX NSCLC
M19-MEL melanoma = system: M19-MEL melanoma
HCT-116 colon = system: HCT-116 colon
NCI/ADR-RES ovarian = system: NCI/ADR-RES ovarian
P388/ADR leukemia = system: P388/ADR leukemia
SK-MEL-5 melanoma = system: SK-MEL-5 melanoma
SNB-78 CNS = system: SNB-78 CNS
U251 CNS = system: U251 CNS
OVCAR-4 ovarian = system: OVCAR-4 ovarian
MCF7 breast = system: MCF7 breast
NCI-H226 lung = system: NCI-H226 lung
KM20L2 colon = system: KM20L2 colon
SF-539 CNS = system: SF-539 CNS
SNB-75 CNS = system: SNB-75 CNS
HOP-62 NSCLC = system: HOP-62 NSCLC
CCRF-CEM leukemia = system: CCRF-CEM leukemia
OVCAR-5 ovarian = system: OVCAR-5 ovarian
HT29 colon = system: HT29 colon
NCI-H460 lung = system: NCI-H460 lung
MOLT-4 leukemia = system: MOLT-4 leukemia
CAKI-1 renal = system: CAKI-1 renal
SR leukemia = system: SR leukemia
M14 melanoma = system: M14 melanoma
TK-10 renal = system: TK-10 renal
786-0 renal = system: 786-0 renal
LXFL 529 NSCLC = system: LXFL 529 NSCLC
RXF-631 renal = system: RXF-631 renal
ACHN renal = system: ACHN renal

**Q.** CSc1nc2c(ncn2C2OCC(O)C(O)C2O)c(=O)[nH]1 (stereo unspecified) was tested. Which TGI (HOP-18 NSCLC) did it give?
**A.** > 100 µM

**Q.** And the TGI (SF-268 CNS)?
**A.** > 100 µM

**Q.** What about the TGI (OVCAR-8 ovarian) of the same compound?
**A.** > 100 µM

**Q.** And the TGI (UACC-257 melanoma)?
**A.** > 100 µM

**Q.** And the TGI (HCT-15 colon)?
**A.** > 100 µM

**Q.** What about the TGI (A549 NSCLC) of the same compound?
**A.** > 100 µM

**Q.** What about the TGI (DMS 114 small cell lung) of the same compound?
**A.** > 100 µM

**Q.** And the TGI (DMS 273 small cell lung)?
**A.** > 100 µM

**Q.** What about the TGI (HOP-92 NSCLC) of the same compound?
**A.** > 100 µM

**Q.** And the TGI (OVCAR-3 ovarian)?
**A.** > 100 µM

**Q.** What about the TGI (RPMI-8226 leukemia) of the same compound?
**A.** > 100 µM

**Q.** What about the TGI (SK-MEL-28 melanoma) of the same compound?
**A.** > 100 µM

**Q.** And the TGI (NCI-H522 lung)?
**A.** > 100 µM

**Q.** What about the TGI (DLD-1 colon) of the same compound?
**A.** > 100 µM

**Q.** What about the TGI (SN12C renal) of the same compound?
**A.** > 100 µM

**Q.** What about the TGI (SW-620 colon) of the same compound?
**A.** > 100 µM

**Q.** What about the TGI (MALME-3M melanoma) of the same compound?
**A.** > 100 µM

**Q.** What about the TGI (SNB-19 CNS) of the same compound?
**A.** > 100 µM

**Q.** What about the TGI (UACC-62 melanoma) of the same compound?
**A.** > 100 µM

**Q.** And the TGI (SN12K1 renal)?
**A.** > 100 µM

**Q.** What about the TGI (RXF 393 renal) of the same compound?
**A.** > 100 µM

**Q.** And the TGI (K-562 leukemia)?
**A.** > 100 µM

**Q.** What about the TGI (SK-MEL-2 melanoma) of the same compound?
**A.** > 100 µM

**Q.** And the TGI (LOX IMVI melanoma)?
**A.** > 100 µM

**Q.** And the TGI (KM12 colon)?
**A.** > 100 µM

**Q.** And the TGI (SF-295 CNS)?
**A.** > 100 µM

**Q.** What about the TGI (XF 498 CNS) of the same compound?
**A.** > 100 µM

**Q.** What about the TGI (IGROV1 ovarian) of the same compound?
**A.** > 100 µM

**Q.** And the TGI (A498 renal)?
**A.** > 100 µM

**Q.** What about the TGI (NCI-H23 lung) of the same compound?
**A.** > 100 µM

**Q.** What about the TGI (COLO 205 colon) of the same compound?
**A.** > 100 µM

**Q.** What about the TGI (HCC-2998 colon) of the same compound?
**A.** > 100 µM

**Q.** And the TGI (P388 leukemia)?
**A.** > 100 µM

**Q.** What about the TGI (HL-60(TB) leukemia) of the same compound?
**A.** > 100 µM

**Q.** And the TGI (UO-31 renal)?
**A.** > 100 µM

**Q.** And the TGI (SK-OV-3 ovarian)?
**A.** > 100 µM

**Q.** And the TGI (EKVX NSCLC)?
**A.** > 100 µM

**Q.** What about the TGI (M19-MEL melanoma) of the same compound?
**A.** > 100 µM

**Q.** And the TGI (HCT-116 colon)?
**A.** > 100 µM

**Q.** And the TGI (NCI/ADR-RES ovarian)?
**A.** > 100 µM

**Q.** And the TGI (P388/ADR leukemia)?
**A.** > 100 µM

**Q.** What about the TGI (SK-MEL-5 melanoma) of the same compound?
**A.** > 100 µM

**Q.** And the TGI (SNB-78 CNS)?
**A.** > 100 µM

**Q.** And the TGI (U251 CNS)?
**A.** > 100 µM

**Q.** And the TGI (OVCAR-4 ovarian)?
**A.** > 100 µM

**Q.** And the TGI (MCF7 breast)?
**A.** > 100 µM

**Q.** What about the TGI (NCI-H226 lung) of the same compound?
**A.** > 100 µM

**Q.** What about the TGI (KM20L2 colon) of the same compound?
**A.** > 100 µM

**Q.** What about the TGI (SF-539 CNS) of the same compound?
**A.** > 100 µM

**Q.** What about the TGI (SNB-75 CNS) of the same compound?
**A.** > 100 µM

**Q.** And the TGI (HOP-62 NSCLC)?
**A.** > 100 µM

**Q.** What about the TGI (CCRF-CEM leukemia) of the same compound?
**A.** > 100 µM

**Q.** What about the TGI (OVCAR-5 ovarian) of the same compound?
**A.** > 100 µM

**Q.** And the TGI (HT29 colon)?
**A.** > 100 µM

**Q.** And the TGI (NCI-H460 lung)?
**A.** > 100 µM

**Q.** And the TGI (MOLT-4 leukemia)?
**A.** > 100 µM

**Q.** CC(C)=C1CCC(CN2CCCC2)C1=O (stereo unspecified) was tested. Which TGI (HOP-18 NSCLC) did it give?
**A.** 32.7 µM

**Q.** And the TGI (SF-268 CNS)?
**A.** 65.7 µM

**Q.** And the TGI (CAKI-1 renal)?
**A.** 28.9 µM

**Q.** What about the TGI (SR leukemia) of the same compound?
**A.** 35.9 µM

**Q.** And the TGI (OVCAR-8 ovarian)?
**A.** > 100 µM

**Q.** And the TGI (UACC-257 melanoma)?
**A.** 66.7 µM

**Q.** What about the TGI (HCT-15 colon) of the same compound?
**A.** 35.5 µM

**Q.** What about the TGI (A549 NSCLC) of the same compound?
**A.** > 100 µM

**Q.** What about the TGI (DMS 114 small cell lung) of the same compound?
**A.** 37 µM

**Q.** What about the TGI (DMS 273 small cell lung) of the same compound?
**A.** > 100 µM

**Q.** And the TGI (M14 melanoma)?
**A.** 34.1 µM

**Q.** What about the TGI (TK-10 renal) of the same compound?
**A.** > 100 µM

**Q.** What about the TGI (HOP-92 NSCLC) of the same compound?
**A.** 58.5 µM

**Q.** What about the TGI (OVCAR-3 ovarian) of the same compound?
**A.** 31.3 µM

**Q.** What about the TGI (RPMI-8226 leukemia) of the same compound?
**A.** 37.8 µM

**Q.** And the TGI (SK-MEL-28 melanoma)?
**A.** 48.8 µM

**Q.** What about the TGI (DLD-1 colon) of the same compound?
**A.** 33.7 µM

**Q.** And the TGI (SN12C renal)?
**A.** 33.1 µM

**Q.** What about the TGI (SW-620 colon) of the same compound?
**A.** 47.5 µM

**Q.** And the TGI (MALME-3M melanoma)?
**A.** 37.2 µM

**Q.** And the TGI (SNB-19 CNS)?
**A.** > 100 µM

**Q.** What about the TGI (UACC-62 melanoma) of the same compound?
**A.** > 100 µM

**Q.** And the TGI (786-0 renal)?
**A.** 30.8 µM

**Q.** And the TGI (RXF 393 renal)?
**A.** 39.5 µM

**Q.** And the TGI (K-562 leukemia)?
**A.** > 100 µM

**Q.** And the TGI (SK-MEL-2 melanoma)?
**A.** 77.2 µM

**Q.** And the TGI (LOX IMVI melanoma)?
**A.** > 100 µM

**Q.** And the TGI (KM12 colon)?
**A.** > 100 µM

**Q.** And the TGI (SF-295 CNS)?
**A.** > 100 µM

**Q.** And the TGI (XF 498 CNS)?
**A.** 34 µM

**Q.** And the TGI (IGROV1 ovarian)?
**A.** > 100 µM

**Q.** And the TGI (A498 renal)?
**A.** > 100 µM

**Q.** What about the TGI (NCI-H23 lung) of the same compound?
**A.** > 100 µM

**Q.** And the TGI (HCC-2998 colon)?
**A.** 34.6 µM

**Q.** And the TGI (HL-60(TB) leukemia)?
**A.** 50.8 µM

**Q.** What about the TGI (UO-31 renal) of the same compound?
**A.** 36.1 µM

**Q.** And the TGI (LXFL 529 NSCLC)?
**A.** 32.2 µM

**Q.** What about the TGI (RXF-631 renal) of the same compound?
**A.** > 100 µM

**Q.** What about the TGI (EKVX NSCLC) of the same compound?
**A.** > 100 µM

**Q.** And the TGI (M19-MEL melanoma)?
**A.** 37.4 µM

**Q.** What about the TGI (HCT-116 colon) of the same compound?
**A.** 31.6 µM

**Q.** What about the TGI (SK-MEL-5 melanoma) of the same compound?
**A.** > 100 µM

**Q.** What about the TGI (SNB-78 CNS) of the same compound?
**A.** > 100 µM

**Q.** What about the TGI (OVCAR-4 ovarian) of the same compound?
**A.** 32.3 µM

**Q.** And the TGI (NCI-H226 lung)?
**A.** > 100 µM

**Q.** And the TGI (KM20L2 colon)?
**A.** > 100 µM

**Q.** What about the TGI (SF-539 CNS) of the same compound?
**A.** > 100 µM

**Q.** And the TGI (SNB-75 CNS)?
**A.** > 100 µM

**Q.** And the TGI (HOP-62 NSCLC)?
**A.** > 100 µM

**Q.** What about the TGI (CCRF-CEM leukemia) of the same compound?
**A.** 39 µM

**Q.** What about the TGI (OVCAR-5 ovarian) of the same compound?
**A.** > 100 µM

**Q.** What about the TGI (HT29 colon) of the same compound?
**A.** 53.5 µM

**Q.** And the TGI (NCI-H460 lung)?
**A.** > 100 µM

**Q.** What about the TGI (ACHN renal) of the same compound?
**A.** 32.7 µM

**Q.** What about the TGI (MOLT-4 leukemia) of the same compound?
**A.** 44.3 µM
